According to ChEMBL document CHEMBL3603819, “Targeting zoonotic viruses: Structure-based inhibition of the 3C-like protease from bat coronavirus HKU4--The likely reservoir host to the human coronavirus that causes Middle East Respiratory Syndrome (MERS)” (Bioorg Med Chem, 2015):

System: not listed separately
Assay: Inhibition of Bat coronavirus HKU5 3CLpro
Design: species or system Pipistrellus bat coronavirus HKU5
Conditions: not given

Question: With `O=C(Nc1ccc(N(Cc2ccsc2)C(=O)Cn2nnc3ccccc32)cc1)c1cccs1` as the compound, how does the IC50 read?
Answer: 0.54 µM

System: Tylonycteris bat coronavirus HKU4
Conditions: at 100 µM

Question: Which inhibition does the source give for `O=C(Nc1ccc(N(Cc2ccsc2)C(=O)Cn2nnc3ccccc32)cc1)c1cccs1` here?
Answer: 93%

Question: With `COCCC(=O)Nc1ccc(N(Cc2ccsc2)C(=O)Cn2nnc3ccccc32)cc1` as the compound, how does the inhibition read?
Answer: 94%

Question: With `CC(C)(C)NC(=O)C(c1cccnc1)N(C(=O)C1CCCO1)c1ccc(C(C)(C)C)cc1` (centres undefined) as the compound, how does the inhibition read?
Answer: 18%

Question: With `CC(C)(C)NC(=O)C(c1ccsc1)N(C(=O)Cn1nnc2ccccc21)c1ccc(C(C)(C)C)cc1` (centres undefined) as the compound, how does the inhibition read?
Answer: 9%

Question: With `CC(C)Oc1ccc(N(C(=O)c2ccco2)C(C(=O)NC(C)(C)C)c2cccnc2)cc1` (centres undefined) as the compound, how does the inhibition read?
Answer: 13%

Question: Which inhibition does the source give for `CC(C)(C)NC(=O)C(c1cccnc1)N(C(=O)c1coc2ccccc12)c1ccc(C(C)(C)C)cc1` (centres undefined) here?
Answer: 19%

Question: Which inhibition does the source give for `CC(C)(C)NC(=O)C(c1cccnc1)N(C(=O)c1ccco1)c1ccc(Oc2ccccc2)cc1` (centres undefined) here?
Answer: 19%

Question: Which inhibition does the source give for `CC(C)(C)NC(=O)C(c1cccnc1)N(C(=O)c1ccco1)c1ccc(-c2cccc(F)c2F)cc1` (centres undefined) here?
Answer: 18%

Question: With `CC(C)(C)NC(=O)C(c1cncnc1)N(C(=O)c1cnco1)c1ccc(C(C)(C)C)cc1` (centres undefined) as the compound, how does the inhibition read?
Answer: 58%

Question: Which inhibition does the source give for `CC(C)(C)NC(=O)C(c1cccnc1)N(C(=O)Cc1ccco1)C1CC1` (centres undefined) here?
Answer: 43%

Question: With `CCC(C)c1ccc(N(C(=O)c2ccco2)[C@@H](C(=O)NC(C)(C)C)c2cccnc2)cc1` (some centres undefined) as the compound, how does the inhibition read?
Answer: 20%

Question: For `CC(C)(C)NC(=O)C(c1cccnc1)N(C(=O)c1ccco1)c1ccc(-c2ccc[nH]2)cc1` (centres undefined), which inhibition is on record?
Answer: 31%

System: Pipistrellus bat coronavirus HKU5
Assay: Inhibition of Bat coronavirus HKU5 3CLpro at 100 uM relative to control
Conditions: not given

Question: For `O=C(Nc1ccc(N(Cc2ccsc2)C(=O)Cn2nnc3ccccc32)cc1)c1cccs1`, which inhibition is on record?
Answer: 91%
